We go through 44 compounds from publication doi:10.64898/2025.12.08.692997v2 (biorxiv, 2025).

The IC50 is the concentration at which inhibition is half-maximal. Higher therefore signals a need for much substance.

Each structure is given as a SMILES string. Where a name gives a salt, the structure may show the parent alone. Read-outs that look alike come from different tables or passages of the source. Some results are limits rather than exact numbers.

Common to all, as to test: biochemical
Assay [1] has as its target T1, human EphB2-His ectodomain - human EphrinB2-Fc ectodomain (EphB2-EphrinB2 tetramer) (Homo sapiens, UniProt P29323+P52799). Conditions: EphrinB2-EphB2 IC50 (Absolute, µM).
In assay [2] the target is T1, human EphB2-His ectodomain - human EphrinB2-Fc ectodomain (EphB2-EphrinB2 tetramer).
Assay [3] has the same target. As to conditions: EphrinB2-EphB2 IC50 (Relative, µM).
Assay [4] has the same target. This is another data set of the same source.

T1 sequence (P52799 28-229): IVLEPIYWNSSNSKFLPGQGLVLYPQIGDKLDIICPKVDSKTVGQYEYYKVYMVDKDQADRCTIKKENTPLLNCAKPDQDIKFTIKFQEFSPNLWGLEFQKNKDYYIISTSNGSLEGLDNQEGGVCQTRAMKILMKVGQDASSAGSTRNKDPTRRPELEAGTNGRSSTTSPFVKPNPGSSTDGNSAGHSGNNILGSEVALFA
T1 sequence (P29323 19-543): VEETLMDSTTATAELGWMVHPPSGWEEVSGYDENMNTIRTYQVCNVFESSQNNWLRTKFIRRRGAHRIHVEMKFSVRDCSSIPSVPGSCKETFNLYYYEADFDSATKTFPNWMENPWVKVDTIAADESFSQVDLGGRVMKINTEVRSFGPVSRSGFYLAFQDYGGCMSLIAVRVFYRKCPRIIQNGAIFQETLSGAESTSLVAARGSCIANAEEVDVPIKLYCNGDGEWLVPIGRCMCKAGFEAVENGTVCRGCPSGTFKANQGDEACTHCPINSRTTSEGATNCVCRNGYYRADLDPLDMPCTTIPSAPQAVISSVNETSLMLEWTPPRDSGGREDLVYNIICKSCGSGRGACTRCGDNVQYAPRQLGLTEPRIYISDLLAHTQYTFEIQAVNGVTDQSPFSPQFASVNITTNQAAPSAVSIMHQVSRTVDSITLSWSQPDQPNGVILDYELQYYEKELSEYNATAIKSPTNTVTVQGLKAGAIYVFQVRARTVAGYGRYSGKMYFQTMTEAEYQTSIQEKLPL

Regarding `COc1ccccc1N1CCN(Cc2ccc(O)c3ncccc23)CC1` [3511-0013-BF, 5-((4-(2-methoxyphenyl)piperazin-1-yl)methyl)quinolin-8-ol], in assay [1], the IC50 is > 3.2 µM.
For the compound `CN(C(=O)Oc1cccc2cccnc12)c1ccccc1` [compound 2, 8-quinolinyl methyl(phenyl)carbamate], in assay [2], the IC50 was > 100 µM.
For the compound `Oc1ccc(CN2CCN(c3ccccc3)CC2)c2cccnc12` [QPPh . 2HCl, 8-hydroxy-5-((4-phenylpiperazin-1-ium-1-yl)methyl)quinolin-1-ium chloride], the IC50 in assay [1] and in assay [3] was > 1.6 µM each time.
Take `O=C(Oc1ccc(Cl)c2cccnc12)c1cccc(Cl)c1` [compound 8, 5-chloro-8-quinolinyl 3-chlorobenzoate]: the IC50 in assay [4] is > 100 µM.
In the case of `COc1ccc2[nH]cc(C(=O)N3CCN(c4ccccc4OC)CC3)c2c1` [IMP2, (5-methoxy-1H-indol-3-yl)(4-(2-methoxyphenyl)piperazin-1-yl)methanone], the IC50 in assay [1] and in assay [3] was > 1.6 µM throughout.
For the compound `O=[N+]([O-])c1cc(CN2CCOCC2)c2cccnc2c1O` [A19-NO2 . 2 HCl, 4-((8-hydroxy-7-nitroquinolin-1-ium-5-yl)methyl)morpholin-4-ium chloride], the IC50 in assay [1] and in assay [3] was > 1.6 µM throughout.
As to `COc1cc(C(=O)Oc2ccc(Cl)c3cccnc23)cc(OC)c1OC` [compound 14, 5-chloro-8-quinolinyl 3,4,5-trimethoxybenzoate], in assay [4], the IC50 is > 100 µM.
Still for that read-out and setting: for `O=C(Oc1ccc(Cl)c2cccnc12)c1cccc(Br)c1` [compound 7, 5-chloro-8-quinolinyl 3-bromobenzoate] the value was > 100 µM.
Turning to `O=C(Oc1c(Br)cc(Cl)c2cccnc12)N1CCOCC1` [compound 15, 7-bromo-5-chloro-8-quinolinyl 4-morpholinecarboxylate], the IC50 in assay [2] was > 100 µM.
Turning to `Cc1ccc2c(CN3CCN(c4ccc(Br)cc4)CC3)ccc(O)c2n1` [2-MeQPB4 . 2 HCl, 5-((4-(4-bromophenyl)piperazin-1-ium-1-yl)methyl)-8-hydroxy-2-methylquinolin-1-ium chloride], the IC50 in assay [1] and in assay [3] was > 1.6 µM each time.
As to `O=[N+]([O-])c1cc(CN2CCOCC2)c2cccnc2c1O` [A19-NO2, 5-(morpholinomethyl)-7-nitroquinolin-8-ol], the IC50 in assay [1] and in assay [3] was > 3.2 µM each time.
As to `Oc1ccc(CN2CCN(c3ccccc3)CC2)c2cccnc12` [QPPh, 5-((4-phenylpiperazin-1-yl)methyl)quinolin-8-ol], the IC50 in assay [1] was > 3.2 µM.
`Oc1ccc(CN2CCN(Cc3ccc(C(F)(F)F)cc3)CC2)c2cccnc12` [QPCF34-Bn, 5-((4-(4-(trifluoromethyl)benzyl)piperazin-1-yl)methyl)quinolin-8-ol]: the IC50 in assay [1] and in assay [3] was > 1.6 µM each time.
Take `OCc1ccc2c(CN3CCOCC3)cc(Br)c(O)c2n1` [2OH-A20, 7-bromo-2-(hydroxymethyl)-5-(morpholinomethyl)quinolin-8-ol]: the IC50 in assay [1] was > 3.2 µM.
As for `Cc1ccc2c(CN3CCN(c4ccc(Br)cc4)CC3)ccc(O)c2n1` [2-MeQPB4, 5-((4-(4-bromophenyl)piperazin-1-yl)methyl)-2-methylquinolin-8-ol], the IC50 in assay [1] and in assay [3] was > 3.2 µM in each case.
In the case of `CN(C)C(=O)Oc1c(I)cc(Cl)c2cccnc12` [compound 11, 5-chloro-7-iodo-8-quinolinyl dimethylcarbamate], the IC50 in assay [2] was > 100 µM.
Take `COc1ccccc1N1CCN(Cc2cc(Br)c(O)c3ncccc23)CC1` [3511-0013, 7-bromo-5-((4-(2-methoxyphenyl)piperazin-1-yl)methyl)quinolin-8-ol]: the IC50 in assay [1] is > 1.6 µM.
As to `CN(C)C(=O)Oc1c(Br)cc(Cl)c2cccnc12` [compound 8, 7-bromo-5-chloro-8-quinolinyl dimethylcarbamate], the IC50 in assay [2] was > 100 µM.
As for `Cc1cccc(C(=O)Oc2ccc(Cl)c3cccnc23)c1` [compound 18, 5-chloro-8-quinolinyl 3-methylbenzoate], the IC50 in assay [4] was > 100 µM.
As to `O=C(Oc1c(I)cc(Cl)c2cccnc12)N1CCCCC1` [compound 9, 5-chloro-7-iodo-8-quinolinyl 1-piperidinecarboxylate], the IC50 in assay [2] is > 100 µM.
Consider `O=[N+]([O-])c1cc(CN2CCS(=O)(=O)CC2)c2cccnc2c1O` [QTM-NO2, 4-((8-hydroxy-7-nitroquinolin-5-yl)methyl)thiomorpholine 1,1-dioxide], for which the IC50 in assay [1] is > 3.2 µM.
On the same count and under the same terms, for `Oc1ccc(CN2CCN(c3ccc(I)cc3)CC2)c2cccnc12` [QPI4 . 2HCl, 8-hydroxy-5-((4-(4-iodophenyl)piperazin-1-ium-1-yl)methyl)quinolin-1-ium chloride] the value was > 1.6 µM.
For `COc1ccc2[nH]cc(C(=O)N3CCOCC3)c2c1` [IM, (5-methoxy-1H-indol-3-yl)(morpholino)methanone], the IC50 in assay [1] and in assay [3] was > 3.2 µM throughout.
Turning to `O=S1(=O)CCN(Cc2cc(I)c(O)c3ncccc23)CC1` [QTM-I . 2 HCl, 4-((8-hydroxy-7-iodoquinolin-1-ium-5-yl)methyl)thiomorpholin-4-ium 1,1-dioxide chloride], in assay [1], the IC50 was > 1.6 µM.
Turning to `COc1cc(OC)cc(C(=O)Oc2ccc(Cl)c3cccnc23)c1` [compound 15, 5-chloro-8-quinolinyl 3,5-dimethoxybenzoate], the IC50 in assay [4] was > 100 µM.
Take `OCc1ccc2c(CN3CCOCC3)ccc(O)c2n1` [2OH-A19, 2-(hydroxymethyl)-5-(morpholinomethyl)quinolin-8-ol]: the IC50 in assay [1] and in assay [3] was > 3.2 µM each time.
As for `Oc1c(Br)cc(CN2CCN(Cc3ccc(Br)cc3)CC2)c2cccnc12` [BQPB4-Bn, 7-bromo-5-((4-(4-bromobenzyl)piperazin-1-yl)methyl)quinolin-8-ol], the IC50 in assay [1] is > 3.2 µM.
As to `COc1ccc2[nH]cc(C(=O)N3CCN(c4ccc(Br)cc4)CC3)c2c1` [IPB4, (4-(4-bromophenyl)piperazin-1-yl)(5-methoxy-1H-indol-3-yl)methanone], the IC50 in assay [1] and in assay [3] was > 1.6 µM each time.
As to `Oc1ccc(CN2CCN(c3ccc(Br)cc3)CC2)c2cccnc12` [QPB4 . 2 HCl, 5-((4-(4-bromophenyl)piperazin-1-ium-1-yl)methyl)-8-hydroxyquinolin-1-ium chloride], in assay [1], the IC50 is > 1.6 µM.
For the compound `Cc1ccc(N(C)C(=O)Oc2c(Br)cc(Br)c3ccc(C)nc23)cc1` [compound 13, 5,7-dibromo-2-methylquinolin-8-yl methyl(4-methylphenyl)carbamate], the IC50 in assay [2] was > 100 µM.
As for `COc1ccc(C(=O)Oc2cccc3cccnc23)cc1Cl` [compound 13, 8-quinolinyl 3-chloro-4-methoxybenzoate], the IC50 in assay [4] is > 100 µM.
Same read-out and setting: then `O=C(Oc1cccc2cccnc12)c1ccc(Br)cc1` [compound 1, 8-quinolinyl 4-bromobenzoate], with > 100 µM.
`Cc1ccc2c(CN3CCOCC3)cc(Br)c(O)c2n1` [2-MeA20, 7-bromo-2-methyl-5-(morpholinomethyl)quinolin-8-ol]: the IC50 in assay [1] was > 3.2 µM.
With `COc1ccc(C(=O)Oc2ccc(Cl)c3cccnc23)cc1` [compound 16, 5-chloro-8-quinolinyl 4-methoxybenzoate], in assay [4], the IC50 was > 100 µM.
In the case of `Oc1ccc(CN2CCN(c3ccc(F)cc3F)CC2)c2cccnc12` [QPDF, 5-((4-(2,4-difluorophenyl)piperazin-1-yl)methyl)quinolin-8-ol], the IC50 in assay [1] and in assay [3] was > 1.6 µM in each case.
`CCN(CC)C(=O)Oc1c(Cl)cc(Cl)c2cccnc12` [compound 6, 5,7-dichloro-8-quinolinyl diethylcarbamate]: in assay [2], the IC50 is > 100 µM.
As to `O=C(Oc1ccc(Cl)c2cccnc12)c1ccc(Cl)c(Cl)c1` [compound 10, 5-chloro-8-quinolinyl 3,4-dichlorobenzoate], the IC50 in assay [4] is > 100 µM.
For `CC(=O)Nc1ccc(N2CCN(Cc3ccc(O)c4ncccc34)CC2)cc1` [QPA-Ac, N-(4-(4-((8-hydroxyquinolin-5-yl)methyl)piperazin-1-yl)phenyl)acetamide], the IC50 in assay [1] was > 3.2 µM.
Take `Cc1ccc(C(=O)Oc2c(Cl)cc(Cl)c3cccnc23)cc1C` [compound 17, 5,7-dichloro-8-quinolinyl 3,4-dimethylbenzoate]: in assay [4], the IC50 was > 100 µM.
Regarding `Oc1ccc(CN2CCN(c3ccc(Br)cn3)CC2)c2cccnc12` [QPP. 2 HCl, 5-((4-(5-bromopyridin-2-yl)piperazin-1-ium-1-yl)methyl)-8-hydroxyquinolin-1-ium chloride], the IC50 in assay [1] is > 3.2 µM.
The same measure, in the same setting: for `Oc1ccc(CN2CCOCC2)c2cccnc12` [A19 . 2 HCl, 4-((8-hydroxyquinolin-1-ium-5-yl)methyl)morpholin-4-ium chloride] the value was > 6.4 µM.
Consider `O=C(Cc1ccccc1)Nc1ccc(N2CCN(Cc3cc(Br)c(O)c4ncccc34)CC2)cc1` [BQPA-PAc, N-(4-(4-((7-bromo-8-hydroxyquinolin-5-yl)methyl)piperazin-1-yl)phenyl)-2-phenylacetamide], for which the IC50 in assay [1] and in assay [3] was > 3.2 µM throughout.
The compound `O=S1(=O)CCN(Cc2cc(Br)c(O)c3ncccc23)CC1` [QTM-Br . 2 HCl, 4-((7-bromo-8-hydroxyquinolin-1-ium-5-yl)methyl)thiomorpholin-4-ium 1,1-dioxide chloride] returned an IC50 in assay [3] of 0.62 µM.
The compound `Oc1c(Br)cc(CN2CCOCC2)c2cccnc12` [A20 . 2 HCl, 4-((7-bromo-8-hydroxyquinolin-1-ium-5-yl)methyl)morpholin-4-ium chloride] yielded an IC50 in assay [1] of 0.78 µM.
